Assay results taken from patent publication US11780839B2, “Compounds for treating Huntington's disease” (PTC THERAPEUTICS, INC., priority 2018, dated 2023).

Tested on: Endogenous Huntingtin Protein
Assay: Endogenous Huntingtin Protein Assay (ELISA-based Meso Scale Discovery electrochemiluminescence)
Assay type: cell-based
Conditions: MSD electrochemiluminescence, Table 1
Procedure, shortened: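 Sandwich MSD electrochemiluminescence immunoassay. Capture used MW1 (expanded polyglutamine) or MAB2166 antibody coated at 1 μg/mL overnight at 4 °C. Samples were bound overnight at 4 °C, then a rabbit monoclonal detection antibody and SULFO-TAG anti-rabbit, each at 0.25 μg/mL, were applied for 1 h at room temperature.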

IC50 [µM] | SMILES
1 to 3 | CC(C)NC1CCN(c2ncc(-c3ccc(-c4cn5ccnc5cn4)cc3O)nn2)C1 (stereo not drawn) [Cpd 283, 5-(imidazo[1,2-a]pyrazin-6-yl)-2-(3-{3-[(propan-2-yl)amino]pyrrolidin-1-yl}-1,2,4-triazin-6-yl)phenol]
0.1 to 0.5 | CO[C@H]1[C@@H](Nc2ncc(-c3ccc(-c4cn[nH]c4)cc3O)nn2)CC(C)(C)NC1(C)C [Cpd 286, 2-(3-{[(3S,4S)-3-methoxy-2,2,6,6-tetramethylpiperidin-4-yl]amino}-1,2,4-triazin-6-yl)-5-(1H-pyrazol-4-yl)phenol]
≤ 0.1 | CC1(C)C[C@H](Nc2ncc(-c3ccc(-c4ncns4)cc3O)nn2)[C@H](F)C(C)(C)N1 [Cpd 292, 2-(3-{[(3S,4S)-3-fluoro-2,2,6,6-tetramethylpiperidin-4-yl]amino}-1,2,4-triazin-6-yl)-5-(1,2,4-thiadiazol-5-yl)phenol]
1 to 3 | CC1(C)C[C@H](Nc2ncc(-c3ccc(-c4cn[nH]c4)cc3O)nn2)[C@H](O)C(C)(C)N1 [Cpd 298, (3S,4S)-4-({6-[2-hydroxy-4-(1H-pyrazol-4-yl)phenyl]-1,2,4-triazin-3-yl}amino)-2,2,6,6-tetramethylpiperidin-3-ol]
≤ 0.1 | Cc1ncc(-c2ccc(-c3cnc(N4CC5(CCN(C)CC5)C4)nn3)c(O)c2)o1 [Cpd 299, 2-[3-(7-methyl-2,7-diazaspiro[3.5]nonan-2-yl)-1,2,4-triazin-6-yl]-5-(2-methyl-1,3-oxazol-5-yl)phenol]
> 0.5 | CC(C)NC1CCN(c2ncc(-c3ccc(-c4cnc5c(cnn5C)c4)cc3O)nn2)C1 (stereo not drawn) [Cpd 307, 5-(1-methyl-1H-pyrazolo[3,4-b]pyridin-5-yl)-2-(3-{3-[(propan-2-yl)amino]pyrrolidin-1-yl}-1,2,4-triazin-6-yl)phenol]
0.1 to 0.5 | CC(C)NC1CCN(c2ncc(-c3ccc(-c4ncco4)cc3O)nn2)C1 (stereo not drawn) [Cpd 308, 5-(1,3-oxazol-2-yl)-2-(3-{3-[(propan-2-yl)amino]pyrrolidin-l-yl}-1,2,4-triazin-6-yl)phenol]
0.1 to 0.5 | CN1CCC[C@H]2CN(c3ncc(-c4ccc(-c5cn[nH]c5)cc4O)nn3)C[C@H]21 [Cpd 310, 2-{3-[(4aS,7aS)-1-methyloctahydro-6H-pyrrolo[3,4-b]pyridin-6-yl]-1,2,4-triazin-6-yl}-5-(1H-pyrazol-4-yl)phenol]
1 to 3 | Cn1cc(-c2ccc(-c3cnc(N4CCC(NC5COC5)C4)nn3)c(O)c2)cn1 (stereo not drawn) [Cpd 313, 5-(1-methyl-1H-pyrazol-4-yl)-2-(3-{3-[(oxetan-3-yl)amino]pyrrolidin-1-yl}-1,2,4-triazin-6-yl)phenol]
≤ 0.1 | CC1(C)CC(Nc2ncc(-c3ccc(Nc4cccnc4)cc3O)nn2)CC(C)(C)N1 [Cpd 315, 5-[(pyridin-3-yl)amino]2-{3-[(2,2,6,6-tetramethylpiperidin-4-yl)amino]-1,2,4-triazin-6-yl}phenol]
≤ 0.1 | CC(C)(CF)NC1CCN(c2ncc(-c3ccc(-c4cn[nH]c4)cc3O)nn2)C1 (stereo not drawn) [Cpd 316, 2-(3-{3-[(1-fluoro-2-methylpropan-2-yl)amino]pyrrolidin-1-yl}-1,2,4-triazin-6-yl)-5-(1H-pyrazol-4-yl)phenol]
≤ 0.1 | CCNC1CCN(c2ncc(-c3ccc(-c4cn[nH]c4)cc3O)nn2)C1 (stereo not drawn) [Cpd 317, 2-{3-[3-(ethylamino)pyrrolidin-1-yl]-1,2,4-triazin-6-yl}-5-(1H-pyrazol-4-yl)phenol]

The remaining lines, values behind:

SMILES | IC50 [µM]
CC1(C)CN(c2ncc(-c3ccc(-c4cn[nH]c4)cc3O)nn2)CC(C)(C)N1 [Cpd 282, 5-(1H-pyrazol-4-yl)-2-[3-(3,3,5,5-tetramethylpiperazin-1-yl)-1,2,4-triazin-6-yl]phenol] | > 0.5
Cn1ncc2cc(-c3ccc(-c4cnc(N[C@H]5CC(C)(C)NC(C)(C)[C@H]5F)nn4)c(O)c3)cnc21 [Cpd 284] | ≤ 0.1
CN(c1ncc(-c2ccc(-c3ccc4c(c3)ncn4C)cc2O)nn1)C1CC(C)(C)NC(C)(C)C1 [Cpd 285, 5-(1-methyl-1H-benzimidazol-5-yl)-2-{3-[methyl(2,2,6,6-tetramethylpiperidin-4-yl)amino]-1,2,4-triazin-6-yl}phenol] | ≤ 0.1
Cn1ncc(-c2ccc(-c3cnc(N[C@H]4CC(C)(C)NC(C)(C)[C@H]4F)nn3)c(O)c2)n1 [Cpd 287, 2-(3-{[(3S,4S)-3-fluoro-2,2,6,6-tetramethylpiperidin-4-yl]amino}-1,2,4-triazin-6-yl)-5-(2-methyl-2H-1,2,3-triazol-4-yl)phenol] | ≤ 0.1
CC1(C)C[C@H](Nc2ncc(-c3ccc(-c4ncco4)cc3O)nn2)[C@H](F)C(C)(C)N1 [Cpd 288, 2-(3-{[(3S,4S)-3-fluoro-2,2,6,6-tetramethylpiperidin-4-yl]amino}-1,2,4-triazin-6-yl)-5-(1,3-oxazol-2-yl)phenol] | ≤ 0.1
Cc1ncc(-c2ccc(-c3cnc(N4CCC(NC(C)C)C4)nn3)c(O)c2)o1 (stereo not drawn) [Cpd 289, 5-(2-methyl-1,3-oxazol-5-yl)-2-(3-{3-[(propan-2-yl)amino]pyrrolidin-l-yl}-1,2,4-triazin-6-yl)phenol] | ≤ 0.1
COc1cc(-c2ccc(-c3cnc(N[C@H]4CC(C)(C)NC(C)(C)[C@H]4F)nn3)c(O)c2)ncn1 [Cpd 290, 2-(3-{[(3S,4S)-3-fluoro-2,2,6,6-tetramethylpiperidin-4-yl]amino}-1,2,4-triazin-6-yl)-5-(6-methoxypyrimidin-4-yl)phenol] | ≤ 0.1
Cn1nnc(-c2ccc(-c3cnc(N[C@H]4CC(C)(C)NC(C)(C)[C@H]4F)nn3)c(O)c2)n1 [Cpd 291, 2-(3-{[(3S,4S)-3-fluoro-2,2,6,6-tetramethylpiperidin-4-yl]amino}-1,2,4-triazin-6-yl)-5-(2-methyl-2H-tetrazol-5-yl)phenol] | ≤ 0.1
CO[C@H]1[C@@H](N(C)c2ncc(-c3ccc(-c4cn[nH]c4)cc3O)nn2)CC(C)(C)NC1(C)C [Cpd 293, 2-(3-{[(3S,4S)-3-methoxy-2,2,6,6-tetramethylpiperidin-4-yl](methyl)amino}-1,2,4-triazin-6-yl)-5-(1H-pyrazol-4-yl)phenol] | 0.1 to 0.5
CC(C)NC1CCN(c2ncc(-c3ccc(-c4ccc5nccn5n4)cc3O)nn2)C1 (stereo not drawn) [Cpd 294] | ≤ 0.1
CNC1CCN(c2ncc(-c3ccc(-c4cnn(C)n4)cc3O)nn2)C1 (stereo not drawn) [Cpd 295, 2-{3-[3-(methylamino)pyrrolidin-1-yl]-1,2,4-triazin-6-yl}-5-(2-methyl-2H-1,2,3-triazol-4-yl)phenol] | ≤ 0.1
CNC1CCN(c2ncc(-c3ccc(-c4ccn(C)n4)cc3O)nn2)C1 (stereo not drawn) [Cpd 296, 2-{3-[3-(methylamino)pyrrolidin-1-yl]-1,2,4-triazin-6-yl}-5-(1-methyl-1H-pyrazol-3-yl)phenol] | 1 to 3
CC(C)CNC1CCN(c2ncc(-c3ccc(-c4cn[nH]c4)cc3O)nn2)C1 (stereo not drawn) [Cpd 297] | ≤ 0.1
CN(c1ncc(-c2ccc(-c3cc(F)c4c(c3)ncn4C)cc2O)nn1)C1CC(C)(C)NC(C)(C)C1 [Cpd 300, 5-(7-fluoro-1-methyl-1H-benzimidazol-5-yl)-2-{3-[methyl(2,2,6,6-tetramethylpiperidin-4-yl)amino]-1,2,4-triazin-6-yl}phenol] | 1 to 3
CN(c1ncc(-c2ccc(-c3cc4nc[nH]c4c(F)c3F)cc2O)nn1)C1CC(C)(C)NC(C)(C)C1 [Cpd 301, 5-(6,7-difluoro-1H-benzimidazol-5-yl)-2-{3-[methyl(2,2,6,6-tetramethylpiperidin-4-yl)amino]-1,2,4-triazin-6-yl}phenol] | ≤ 0.1
CN(c1ncc(-c2ccc(-c3cc4ncn(C)c4c(F)c3F)cc2O)nn1)C1CC(C)(C)NC(C)(C)C1 [Cpd 302, 5-(6,7-difluoro-1-methyl-1H-benzimidazol-5-yl)-2-{3-[methyl(2,2,6,6-tetramethylpiperidin-4-yl)amino]-1,2,4-triazin-6-yl}phenol] | > 0.5
Cc1cc(-c2ccc(-c3cnc(N(C)C4CC(C)(C)NC(C)(C)C4)nn3)c(O)c2)nn2ccnc12 [Cpd 303, 5-(8-methylimidazo[1,2-b]pyridazin-6-yl)-2-{3-[methyl(2,2,6,6-tetramethylpiperidin-4-yl)amino]-1,2,4-triazin-6-yl}phenol] | ≤ 0.1
COc1cc(-c2ccc(-c3cnc(N(C)C4CC(C)(C)NC(C)(C)C4)nn3)c(O)c2)nn2ccnc12 [Cpd 304, 5-(8-methoxyimidazo[1,2-b]pyridazin-6-yl)-2-{3-[methyl(2,2,6,6-tetramethylpiperidin-4-yl)amino]-1,2,4-triazin-6-yl}phenol] | ≤ 0.1
CC1(C)CC(Nc2ncc(-c3ccc(-c4cncnn4)cc3O)nn2)CC(C)(C)N1 [Cpd 305, 2-{3-[(2,2,6,6-tetramethylpiperidin-4-yl)amino]-1,2,4-triazin-6-yl}-5-(1,2,4-triazin-6-yl)phenol] | ≤ 0.1
Oc1cc(-c2cn[nH]c2)ccc1-c1cnc(N2C[C@@H]3CCCN[C@@H]3C2)nn1 [Cpd 306, 2-{3-[(4aS,7aS)-octahydro-6H-pyrrolo[3,4-b]pyridin-6-yl]-1,2,4-triazin-6-yl}-5-(1H-pyrazol-4-yl)phenol] | 0.1 to 0.5
CN1CC[C@H](Oc2ncc(-c3ccc(-c4cn[nH]c4)cc3O)nn2)C1 [Cpd 309, 2-(3-{[(3S)-1-methylpyrrolidin-3-yl]oxy}-1,2,4-triazin-6-yl)-5-(1H-pyrazol-4-yl)phenol] | > 0.5
CN1CCO[C@@H]2CN(c3ncc(-c4ccc(-c5cn[nH]c5)cc4O)nn3)C[C@@H]21 [Cpd 311, 2-{3-[(4aS,7aR)-4-methylhexahydropyrrolo[3,4-b][1,4]oxazin-6(2H)-yl]-1,2,4-triazin-6-yl}-5-(1H-pyrazol-4-yl)phenol] | 1 to 3
Oc1cc(-c2cn[nH]c2)ccc1-c1cnc(N2CCC(NC3COC3)C2)nn1 (stereo not drawn) [Cpd 312, 2-(3-{3-[(oxetan-3-yl)amino]pyrrolidin-1-yl}-1,2,4-triazin-6-yl)-5-(1H-pyrazol-4-yl)phenol] | 1 to 3
CC1(C)CC(Nc2ncc(-c3ccc(-c4ccnnc4)cc3O)nn2)CC(C)(C)N1 [Cpd 314, 5-(pyridazin-4-yl)-2-{3-[(2,2,6,6-tetramethylpiperidin-4-yl)amino]-1,2,4-triazin-6-yl}phenol] | ≤ 0.1
